# According to ChEMBL document CHEMBL5038666, “Discovery of DNA-Targeting HDAC Inhibitors with Potent Antitumor Efficacy In Vivo That Trigger Antitumor Immunity” (J Med Chem, 2022):
# Calls of active or inactive are those of the source. The calls are words filed in the database; no cut-off is given here.
# What was measured:
# [1] = test system: B16-F10; assay: Antitumor activity against mouse B16-F10 cells xenografted in C57BL/6J mouse assessed as reduction in tumor heterogeneity at 60 mg/kg, IG administered for 12 days by H and E staining based histopathological analysis; assay type: functional, organism-based; details: time 12.0 day
# [2] = Toxicity in C57BL/6J mouse implanted with mouse B16-F10 cells assessed as effect on body weight at 60 mg/kg, IG administered for 12 days; assay type: organism-based; details: in vivo, po, 288 h, time 12 day
# [3] = Toxicity in mouse xenografted with HEL cells assessed as effect on body weight at 90 mg/kg, ip administered for 20 days; assay type: organism-based; details: in vivo, 480 h, time 20 day
# [4] = test system: B16-F10; assay: Antitumor immunity against mouse B16-F10 cells implanted in C57BL/6J mouse assessed as fold increase of CD8+ T cells in spleen by flow cytometry analysis relative to control; assay type: functional
# [5] = Toxicity in C57BL/6J mouse implanted with mouse B16-F10 cells assessed as lung damage at 60 mg/kg, IG administered for 12 days H and E staining based histopathological analysis; assay type: organism-based; details: in vivo, po, 288 h, time 12 day
# [6] = test system: B16-F10; assay: Antitumor immunity against mouse B16-F10 cells implanted in C57BL/6J mouse assessed as fold increase in CD69 expression by flow cytometry analysis relative to control; assay type: functional
# [7] = test system: B16-F10; assay: Antitumor immunity against mouse B16-F10 cells implanted in C57BL/6J mouse assessed as increase in proportion of dendritic cells by flow cytometry analysis; assay type: functional, cell-based
# [8] = test system: B16-F10; assay: Antitumor immunity against mouse B16-F10 cells implanted in C57BL/6J mouse assessed as fold increase of CD3+ T cells in spleen by flow cytometry analysis relative to control; assay type: functional
# [9] = target: Histone deacetylase; assay: Inhibition of HDAC in human HeLa nuclear extract using fluorogenic substrate incubated for 30 mins by fluorescence based assay; assay type: cell-based
# [10] = test system: B16-F10; assay: Antitumor immunity against mouse B16-F10 cells implanted in C57BL/6J mouse assessed as fold increase in CD107a expression by flow cytometry analysis relative to control; assay type: functional
# [11] = test system: B16-F10; assay: Antitumor activity against mouse B16-F10 cells implanted in C57BL/6J mouse assessed as reduction on tumor volume at 60 mg/kg, IG administered for 12 days; assay type: functional, organism-based; details: time 12.0 day
# [12] = test system: B16-F10; assay: Antitumor immunity against mouse B16-F10 cells implanted in C57BL/6J mouse assessed as fold increase of CD4+ T cells in spleen by flow cytometry analysis relative to control; assay type: functional
# [13] = test system: B16-F10; assay: Antitumor immunity against mouse B16-F10 cells implanted in C57BL/6J mouse assessed as fold increase in ICOS expression by flow cytometry analysis relative to control; assay type: functional
# [14] = test system: B16-F10; assay: Antitumor immunity against mouse B16-F10 cells implanted in C57BL/6J mouse assessed as fold increase in IFN-gamma secretion by flow cytometry analysis relative to control; assay type: functional
# [15] = target: T1, Histone deacetylase 8 (Homo sapiens, UniProt Q9BY41); assay: Inhibition of HDAC8 (unknown origin) using fluorogenic substrate incubated for 30 mins by fluorescence based assay
# T1 sequence (Q9BY41 whole entry): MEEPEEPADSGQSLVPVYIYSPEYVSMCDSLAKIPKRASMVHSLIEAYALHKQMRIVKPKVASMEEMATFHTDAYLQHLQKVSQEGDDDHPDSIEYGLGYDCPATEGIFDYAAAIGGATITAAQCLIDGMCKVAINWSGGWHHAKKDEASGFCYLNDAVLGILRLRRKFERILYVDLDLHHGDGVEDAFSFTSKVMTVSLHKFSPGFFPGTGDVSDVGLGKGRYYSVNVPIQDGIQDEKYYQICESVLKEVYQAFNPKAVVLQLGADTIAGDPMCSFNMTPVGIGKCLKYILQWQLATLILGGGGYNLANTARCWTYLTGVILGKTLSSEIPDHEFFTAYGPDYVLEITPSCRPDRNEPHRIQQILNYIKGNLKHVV
# [16] = test system: B16-F10; assay: Antitumor immunity against mouse B16-F10 cells implanted in C57BL/6J mouse assessed as fold reduction in M2 macrophages in tumor microenvironment by flow cytometry analysis relative to control; assay type: functional
# [17] = test system: KG-1; assay: Induction of apoptosis in human KG-1 cells assessed as increase in cleaved active caspase 3 level at 0.5 to […] measured after 24 hrs by Western blot analysis; assay type: functional, cell-based; details: dose 0.5-2.5 µM
# [18] = test system: Calf thymus DNA; assay: Binding affinity to calf thymus DNA assessed as change in entropy at 500 microM by isothermal titration calorimetric analysis; assay type: nucleic-acid assay; details: Bos taurus
# [19] = test system: B16-F10; assay: Antitumor immunity against mouse B16-F10 cells implanted in C57BL/6J mouse assessed as increase in proportion of T cells in spleen by flow cytometry analysis; assay type: functional, cell-based
# [20] = target: T2, Histone deacetylase (Homo sapiens) (UniProt Q13547+O15379+Q9UBN7+Q92769+Q9UQL6+Q8WUI4+Q9BY41+Q96DB2+P56524+Q9UKV0+Q969S8); assay: Inhibition of HDAC in human KG1 cells assessed as increase in acetylation of alpha tubulin measured after 24 hrs by Western blot analysis; assay type: cell-based; details: KG-1, dose 0.5-2.5 µM
# [21] = test system: Calf thymus DNA; assay: Binding affinity to calf thymus DNA assessed as increase in absorption at 20 uM by UV-vis absorption spectroscopy; assay type: nucleic-acid assay; details: Bos taurus
# [22] = test system: KG-1; assay: Induction of apoptosis in human KG-1 cells assessed as total apoptotic cells at 1 uM measured after 24 hrs by Annexin V-FITC/propidium iodide staining based flow cytometry analysis relative to control; assay type: functional
# [23] = test system: KG-1; assay: Potency index, ratio of SAHA IC50 to test compound IC50 for antiproliferative activity against human KG1 cells assessed as inhibition of cell growth measured after 48 hrs by MTT assay; assay type: functional
# [24] = test system: KG-1; assay: Downregulation of SSRP-1 expression in human KG-1 cells assessed as chromatin damage at 0.5 to […] measured after 24 hrs by Western blot analysis; assay type: functional, cell-based; details: dose 0.5-2.5 µM
# [25] = test system: KG-1; assay: Induction of apoptosis in human KG-1 cells measured after 24 hrs by Annexin V-FITC/propidium iodide staining based flow cytometry analysis; assay type: functional, cell-based; details: dose 0.5-1 µM
# [26] = target: T2, Histone deacetylase (Homo sapiens); assay: Inhibition of HDAC in human KG-1 cells assessed as increase in acetylation of histone H3 measured after 24 hrs by Western blot analysis; assay type: cell-based; details: dose 0.5-2.5 µM
# [27] = test system: KG-1; assay: Downregulation of SPT16 expression in human KG-1 cells assessed as chromatin damage at 0.5 to […] measured after 24 hrs by Western blot analysis; assay type: functional, cell-based; details: dose 0.5-2.5 µM
smiles,measurement,setting,value
O=C(CCCCCCCOc1cccc(-c2nc3ccccc3[nH]2)c1)NO,Activity,[1],Active
same,Activity,[2],Non-Toxic
same,Activity,[3],Non-Toxic
same,fold change (FC),[4],1.5
same,Activity,[5],Non-Toxic
same,fold change (FC),[6],1.5
same,Activity,[7],inactive
same,fold change (FC),[8],1.6
same,IC50,[9],7.9 nM
same,fold change (FC),[10],1.5
same,Activity,[11],Active
same,fold change (FC),[12],2
same,fold change (FC),[13],1.5
same,fold change (FC),[14],1.5
same,IC50,[15],12.9 nM
same,fold change (FC),[16],1.5
O=C(CCCCCCOc1cccc(-c2nc3ccccc3[nH]2)c1)NO,Activity,[1],Active
same,Activity,[17],Active
same,Activity,[2],Non-Toxic
same,-TdeltaS,[18],74 kcal/mol
same,Activity,[3],Non-Toxic
same,Activity,[19],Active
same,Activity,[20],Dose-Dependent Effect
same,Activity,[21],Active
same,Activity,[22],56.9%
same,fold change (FC),[23],50
same,IC50,[9],13.2 nM
same,Activity,[24],Active
same,Activity,[25],Dose-Dependent Effect
same,Activity,[11],Active
same,Activity,[26],Dose-Dependent Effect
same,IC50,[15],5980 nM
same,Activity,[27],Active
